Where “and” joins values, the source holds several entries; their conditions need not be identical. Equal entries are not always repeated.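 All cell lines were grown in 96-well plates and treated with compound for 48 hours. Here, GI50 denotes the concentration required for 50% inhibition of growth. TGI marks complete inhibition of growth.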
Columns and labels:
Test in all cases: inhibition of tumour cell growth, NCI panel, 48 h
A498 renal = test system: A498 renal
ACHN renal = test system: ACHN renal
DU-145 prostate = test system: DU-145 prostate
HCT-15 colon = test system: HCT-15 colon
KM12 colon = test system: KM12 colon
PC-3 prostate = test system: PC-3 prostate
SK-MEL-5 melanoma = test system: SK-MEL-5 melanoma
SR leukemia = test system: SR leukemia
SW-620 colon = test system: SW-620 colon
UACC-257 melanoma = test system: UACC-257 melanoma

Row | Structure (SMILES) | GI50 (A498 renal) | TGI (A498 renal) | GI50 (ACHN renal) | TGI (ACHN renal) | GI50 (DU-145 prostate) | TGI (DU-145 prostate) | GI50 (HCT-15 colon) | TGI (HCT-15 colon) | GI50 (KM12 colon) | TGI (KM12 colon) | GI50 (PC-3 prostate) | TGI (PC-3 prostate) | GI50 (SK-MEL-5 melanoma) | TGI (SK-MEL-5 melanoma) | GI50 (SR leukemia) | TGI (SR leukemia) | GI50 (SW-620 colon) | TGI (SW-620 colon) | GI50 (UACC-257 melanoma) [µM] | TGI (UACC-257 melanoma)
1 | C=C1SC(=Nc2ccccc2Cl)N(C(=O)c2sc3ccccc3c2Cl)C12CCCCC2 | 2.77 µM | 74.6 µM | 4.89 µM | > 100 µM | 6.2 µM | > 100 µM | 5.45 µM | > 100 µM | 4.73 µM | > 100 µM | 4.51 µM | > 100 µM | 8.2 µM | > 100 µM | 8.54 µM | > 100 µM | 5.87 µM | > 100 µM | 23.6 | > 100 µM
2 | COc1ccc(NC(=O)c2sc3nc(C)c(C(=O)/C=C/c4cccc(OC)c4)cc3c2N)cc1 | 1.08 µM | 3.22 µM | 1.08 µM | 2.49 µM | 1.64 µM | 5.66 µM | 1.01 µM | 2.42 µM | 1.45 µM | 5.06 µM | 1.56 µM | 6.55 µM | 3.55 µM | 10.7 µM | 1.24 µM | 5.92 µM | 1.26 µM | 3.79 µM | 1.74 | 11.7 µM
3 | COC(=O)Nc1nc2ccc(C(=O)c3ccccc3)cc2[nH]1 | 0.314 µM and 0.325 µM | 8.9 µM and 3.26 µM | 2.23 µM and 1.33 µM | > 100 µM | 1.06 µM and 0.259 µM | 22.6 µM and 3 µM | 0.451 µM and 0.21 µM | > 100 µM | 0.402 µM and 0.13 µM |  | 0.405 µM and 0.25 µM | > 100 µM and 19.1 µM | 0.35 µM and 0.215 µM | 14 µM and 1.47 µM | 0.168 µM and 0.0444 µM | 28.1 µM and > 100 µM | 0.41 µM and 0.259 µM | > 100 µM | 38 | > 100 µM
4 | Cc1c(N)nc(C(CC(N)=O)NCC(N)C(N)=O)nc1C(=O)NC(C(=O)NC(C)C(O)C(C)C(=O)NC(C(=O)NCCc1nc(-c2nc(C(=O)NCCCNC(C)c3ccccc3)cs2)cs1)C(C)O)C(OC1OC(CO)C(O)C(O)C1OC1OC(CO)C(O)C(OC(N)=O)C1O)c1cnc[nH]1 (configuration not stated) |  | 27.5 µM |  | 0.189 µM and 1.48 µM | 10.5 µM | 39.2 µM and 55 µM | 26.8 µM | 50 µM and > 100 µM | 44.1 µM | 50 µM and > 100 µM | 38.8 µM | > 100 µM | 1.51 µM | 14.9 µM and 18.6 µM | 50.3 µM | 50 µM and > 100 µM | 24.8 µM | 50 µM and > 100 µM | 56.5 | 50 µM and > 100 µM
5 | O=CN1N=C(c2cccc(Nc3ccnc4cc(Cl)ccc34)c2)CC1c1ccccc1 (configuration not stated) | 0.23 µM | 1.1 µM | 0.778 µM | > 79.4 µM | 0.44 µM | 16.8 µM | 0.511 µM | > 100 µM | 0.315 µM | 12.7 µM | 0.306 µM | 42.7 µM | 0.315 µM | 2.02 µM | 0.201 µM | 1.72 µM | 0.311 µM | 14.7 µM | 0.301 | 37.6 µM
6 | COc1ccc(/C=C2\SC(=Nc3ccccc3)NC2=O)cc1 | 1.08 µM | 7.34 µM | 5.53 µM | 48.5 µM | 11.4 µM | 71.5 µM | 2.73 µM | > 100 µM | 4.37 µM | 22 µM | 7.69 µM | > 100 µM | 7.63 µM | 30.5 µM | 2.5 µM | 30.7 µM | 3.38 µM | 24.4 µM | 52.2 | > 100 µM
7 | Cn1c(-c2ccccc2)c(/C=C/C2=[N+](C)c3ccccc3C2(C)C)c2ccccc21 | 1.71 µM | 10.9 µM | 3.05 µM | 11.7 µM | 1.87 µM | 12.7 µM | 3.92 µM | 22.1 µM | 0.429 µM | 1.94 µM | 0.575 µM | 9.16 µM | 0.363 µM | 1.35 µM | 0.433 µM | 5.77 µM | 1.52 µM | 12.5 µM | 0.405 | 2.53 µM
8 | O=C(C#Cc1ccccc1)C1=Cc2ccccc2OC1 |  | 39.2 µM |  | 5.26 µM |  | 20.7 µM |  | 6.38 µM |  | 9.67 µM |  | 22.2 µM |  | 4.89 µM |  | > 100 µM |  | 9.84 µM |  | 8.23 µM
9 | Clc1ccc2nc(CI)c(CI)nc2c1 | 29.7 µM | > 60.7 µM | 1.83 µM | 3.4 µM | 10.1 µM | 23.5 µM | 3.46 µM | 12.1 µM | 6.07 µM | 17.6 µM | 7.02 µM | 29.9 µM | 4.59 µM | 14.3 µM | 1.68 µM | 6.79 µM | 2.54 µM | 6.62 µM | 4.51 | 16.8 µM
10 | Cc1c(Cl)cccc1NC(=O)/C=C/c1ccccc1 |  | > 100 µM |  | > 100 µM |  | > 100 µM |  | > 100 µM |  | > 100 µM |  | > 100 µM |  | > 100 µM |  | > 100 µM |  | > 100 µM |  | > 100 µM
11 | C[n+]1c2ccccc2nc2ccccc21 | 1.75 µM | 3.46 µM | 0.789 µM | 5.5 µM | 1.57 µM | 3.12 µM | 2.07 µM | 10.8 µM | 2.93 µM | 12.2 µM | 1.06 µM | 12 µM | 1.03 µM | 2.52 µM | 6.14 µM | > 28.2 µM | 1.37 µM | 3.26 µM | 1.8 | 5.01 µM
12 | O=C(/C=C1\C(=O)N(Cc2ccccc2)c2ccccc21)c1ccc(OCCN2CCCCC2)cc1 | 14.2 µM | 28.8 µM | 1.63 µM | 2.98 µM | 2.26 µM | 5.05 µM | 1.71 µM | 3.31 µM | 5.9 µM | 20.8 µM | 1.85 µM | 3.92 µM | 12.6 µM | 25.4 µM | 1.77 µM | 9.55 µM | 1.7 µM | 3.3 µM | 12.9 | 25.9 µM
